Where two headings read alike, the source gives them in different places.
Legend:
[1] = test system: S. mansoni schistosomula; assay: Screening of S. mansoni schistosomula (Roboworm, motility and phenotype); format: cell-based, Schistosoma mansoni; conditions: for EC50: Schistosoma mansoni; for Selectivity index, schistosomula motility: HepG2 CC50 / schistosomula motility EC50; for Selectivity index, schistosomula phenotype: HepG2 CC50 / schistosomula phenotype EC50
Procedure: Biomphalaria glabrata (NMRI and the previously described pigmented strains) snails infected with S. mansoni (Puerto Rican strain) were shed for 2 hrs under light at 26 °C. Cercariae were collected, mechanically transformed into schistosomula and subsequently prepared for high throughput screening (HTS) on the Roboworm platform as previously described. Schistosomula were cultured in Basch Media (composed of BME media, 10% M169 media, 0.5x MEM vitamins, 10% Schneider’s insect media, 15.6mM Hepes, 5% heat inactivated FBS, 2x Antibiotic/anti-mycotic (Sigma-Aldrich, UK) solution (final concentrations shown)).
EC50 values were calculated from the titrated concentrations by non-linear regression, after log transformation of concentrations and data normalization using GraphPad Prism 7.02.
Fig 2 Anti-schistosomula activity of the eight analogues compared to parent compound 1. […] Test plates were incubated at 37°C for 72 hrs in an atmosphere containing 5% CO2. At 72hrs, schistosomula were scored using the Roboworm platform for both motility (A) and phenotype (B). Any compound that induced a score of below -0.35 for motility (A) and -0.15 for phenotype (B) were considered a hit. Black squares indicate the most positive effect on motility or phenotype; grey scale from dark grey to lighter shades of grey indicates a progressive reduced compound efficacy; white squares indicate no effect on either phenotype or motility. Z´ values for this screen was 0.41741 for motility and 0.57275 for phenotype. (C) Phenotypes of schistosomula when treated with 10μM of each of the test compounds and controls.
Supplementary file pntd.0008630.s003.tif: S1 Fig Initial schistosomula screens of the 14 compounds and their intermediate analogues. […] Test plates were incubated at 37°C for 72 hrs in an atmosphere containing 5% CO2. At 72hrs, schistosomula were scored using the Roboworm platform for both motility and phenotype as previously described. A) Of the 14 compounds evaluated, two fell within the hit region. Z’ scores for motility and phenotype were 0.40079 and 0.56846 respectively. […] Z´ scores for motility and phenotype were 0.37864 and 0.47882 respectively. *Average EC50 value across motility and phenotype is presented for each compound. (TIF) Click here for additional data file.

[2] = test system: adult S. mansoni worm pairs; assay: Screening of adult S. mansoni blood flukes (7-week worms), WHO-TDR motility scoring; format: cell-based, Schistosoma mansoni; conditions: for effect on adult worm motility/lethality: highest dose 20 μM; for effect on adult worm motility/lethality / EC50: 72 hr; for EC50: 7-week worms, motility, 95% confidence interval
Procedure: (§1) Adult S. mansoni parasites were recovered by hepatic portal vein perfusion from TO outbred mice (HsdOla:TO, Tuck-Ordinary, Envigo, UK) that were percutaneously infected seven weeks earlier with 180 cercariae. Three adult worm pairs per well, in duplicate, were transferred into 48 well plates (Fisher Scientific, Loughborough, UK) and cultured at 37 °C in an atmosphere containing 5% CO2 in DMEM (Gibco, Paisley, UK) containing 10% v/v HEPES, 10% v/v Foetal Bovine Serum (FBS), 0.7% v/v 200 mM L-Glutamine and 1X v/v penicillin-streptomycin. Worms were dosed with test compounds at 20 μM, 10 μM, 5 μM, 2.5 μM, 1.25 μM and 0.625 μM (in 0.2% DMSO) for 72 hr. Adult worms were scored manually at 72 hr using the WHO-TDR metric scoring system as described previously. Dose response curves and EC50 values were obtained by non-linear regression, after log transformation of concentrations and data normalization using GraphPad Prism 7.02. At 72 hr, the medium from each well was also collected, centrifuged at 350 x g for 2 min. Afterwards, the supernatant was removed, and the remaining egg pellet re-suspended in 10% v/v formalin. Eggs that were oval and contained a fully formed lateral spine were subsequently counted.
(§2) Fig 3 Adult schistosome motility and egg production are differentially affected by the nine N-acyl homoserine lactones. […] Parasite motility was evaluated for each sex and scored using the WHO-TDR scoring system (0 = Dead parasite, 4 = Normal/Healthy movement). B) Culture media were collected from some adult co-cultures at 72 hrs and eggs present in the media were counted. p values are indicated as follows: * <0.05, ** <0.01, *** <0.001.
Initially, these screens were conducted at 20 μM; any compounds that scored a 1 or 0 for motility at this primary concentration were further titrated until no further effect was observed. […] Similar to the schistosomula assays, the differences observed in adult parasite motility when treated with the (R)- and (S)- enantiomers of Compound 1 were striking. […] Estimated EC50s for male and female parasites for these two enantiomers were determined (Table 2), with Compound 5 ((R)- enantiomer) having greater activity than Compound 6 ((S)- enantiomer).

[3] = Cell cytotoxicity assay (MTT); format: cell-based, human; conditions: human, HepG2 cells, MTT, 95% confidence interval, called EC50
Procedure: The cytotoxicity of each compound was assessed on human HepG2 cells as described previously [17]. Briefly, 2 x 10^4 cells/well were seeded in black walled 96-well microtiter plates (Fisher Scientific, Loughborough, UK) and incubated for 24 hr at 37°C in a humidified atmosphere containing 5% CO2. […] Following a further incubation for 24 hr, the MTT assay was performed as previously described [17, 27]. Dose response curves were obtained by non-linear regression, after log transformation of concentrations and data normalization using GraphPad Prism 7.02.

[4] = test system: adult S. mansoni worm pairs (egg production); assay: In vitro egg production of adult S. mansoni worm pairs; format: cell-based, Schistosoma mansoni; conditions: 72 hr, compared to DMSO
Procedure: as §1, §2
As morbidity associated with schistosomiasis is caused by egg-induced granuloma formation in tissues and the subsequent development of fibrotic lesions around these granulomas, compound-mediated modulation of in vitro egg production (as a surrogate for the in vivo pathology initiator) was next assessed (Fig 3B). […] In comparison to the negative control DMSO, in which egg counts ranged from 300–594 (Average—408), all N-Acyl homoserine lactones affected fecundity.

[5] = test system: S. aureus ATCC 29213; assay: Broth microdilution MIC and IC50 determination, S. aureus; format: cell-based, Staphylococcus aureus; conditions: Staphylococcus aureus, ATCC29213, 24 h, 24 hr
Procedure: (§3) S. aureus ATCC 29213 and E. coli ATCC 25922 were cultured in Luria-Bertani (LB) medium at 37°C with aeration at 200 rpm for 24 hr, with all procedures performed in a biosafety level 2 (BSL2) cabinet. Stationary phase cultures were then used for minimum inhibitory concentration (MIC) determination using the broth microdilution method, in fresh LB medium, in a 96-well plate. All compounds were tested in triplicate using an initial bacterial concentration of 5.0 × 10^5 colony forming units (CFU)/mL at a final concentration of 125 mg/L (5% and 2.5% v/v methanol). Compounds with no visible growth at 125 mg/L were further evaluated with progressing dilutions. […] Dilutions were repeated in three independent experiments where the optical density (OD600) was measured in a Hidex plate spectrophotometer and absorbance data used for the calculation of an IC50 value. The IC50 value was obtained from a dose response titration (125–0.09 mg/L). Dose response curves were obtained by non-linear regression, after log transformation of concentrations and data normalization using GraphPad Prism 7.02.
(§4) As Compound 1 was structurally similar to N-acyl homoserine lactones, a compound class involved in bacterial quorum sensing, we decided to assess its antimicrobial activity and determine if enantiomer separation or lactone ring substitution would change this activity.

[6] = test system: E. coli ATCC 25922; assay: Broth microdilution MIC and IC50 determination, E. coli; format: cell-based; conditions: Escherichia coli, ATCC25922, 24 h, 24 hr
Procedure: as §3, §4

[7] = test system: juvenile S. mansoni worms; assay: Propidium iodide (PI) staining of juvenile S. mansoni worms; format: cell-based, Schistosoma mansoni; conditions: 15 μM, 72 hrs
Procedure: Juvenile S. mansoni parasites were recovered via hepatic portal vein perfusion from TO outbred mice (HsdOla:TO, Tuck-Ordinary, Envigo, UK) that were infected percutaneously three weeks earlier with 4000 cercariae. Preparation and centrifugation of juvenile worms have been described previously. […] After motility quantification, 2 μg/mL of PI was added to each well and the plate returned to 37°C, 5% CO2 for 15 minutes. Each well was subsequently imaged on the Roboworm platform using brightfield and fluorescent microscopy (excitation wavelength = 580 nm; emission wavelength = 604 nm). The number of PI positive vs PI negative juvenile worms were cross-checked with the motility scores obtained by our scoring matrix, and the data reported as percentage of PI positive across all parasites within the well. EC50 values were calculated from the motility scores obtained from the dose response titration (as detailed above) and dose response curves were obtained by non-linear regression, after log transformation of concentrations and data normalization using GraphPad Prism 7.02.
Three week juvenile schistosomes, incubated with compounds (1), (3) or controls for 72 hrs, were subsequently cultured with PI at a final concentration of 2 μg/mL for 15 minutes at 37 °C in an environment containing 5% CO2. PI positive parasites (dead) were counted and the percent live vs dead in each well is indicated. A) Quantification of compound (1) mediated juvenile death. B) Quantification of compound (3) mediated juvenile death.

[8] = 72 hrs, 95% confidence interval, read-out: SCHISTOSOMULA EC50 Motility
[9] = 72 hrs, 95% confidence interval, read-out: SCHISTOSOMULA EC50 Phenotype
[10] = Schistosoma mansoni, read-out: ADULT WORM EC50 Female
[11] = Schistosoma mansoni, read-out: ADULT WORM EC50 Male

Compound	effect on adult worm motility/lethality [2]	EC50 [1, 8] [µM]	EC50 [1, 9] [µM]	EC50 [2, 10] [µM]	EC50 [2, 11] [µM]	CC50 at 24 h [3] [µM]	further results
O[C@H]([C@H](O)COC(c1ccccc1)(c1ccccc1)c1ccccc1)[C@@H](O)COC(c1ccccc1)(c1ccccc1)c1ccccc1 [Compound E, (2R,3s,4S)-1,5-bis(trityloxy)pentane-2,3,4-triol]	–	–	–	–	–	–	effect on schistosomula motility and phenotype metrics in initial screen ([1]; 10 μM, 72 hrs): negatively affected both schistosomula motility and phenotype metrics; EC50 ([1]; 72 h, read-out: average EC50 for phenotype and motility, schistosomula): 5.6 µM
CC(Cl)C(=O)NC1CCOC1=O (centres unmarked) [Compound 9, 2-chloro-N-(2-oxotetrahydrofuran-3-yl)propanamide]	No lethality/motility defects were observed	–	–	–	–	–	–
O=C(CCl)NC1CCSC1=O (centres unmarked) [Compound 8, 2-chloro-N-(2-oxotetrahydrothiophen-3-yl)acetamide]	No lethality/motility defects were observed	–	–	–	–	–	–
CC(Br)C(=O)NC1CCOC1=O (centres unmarked) [Compound 2, 2-bromo-N-(2-oxotetrahydrofuran-3-yl)propanamide]	no activity	> 10	> 10	> 20	> 20	> 200	–
O=C(CCl)NC1CCOC1=O (centres unmarked) [Compound 7, 2-chloro-N-(2-oxotetrahydrofuran-3-yl)acetamide]	No lethality/motility defects were observed	–	–	–	–	–	–
O=C(CBr)N[C@H]1CCOC1=O [Compound 6, (S)-2-bromo-N-(2-oxotetrahydrofuran-3-yl)acetamide]	did not have this effect	> 10	> 10	> 20	–	> 100	anti-schistosomula activity (phenotype and motility) ([1]; titration 10 to 0.625 μM, 72 hrs): no anti-schistosomula activity was observed; Selectivity index, adult worm male ([2]; HepG2 CC50 / adult male EC50): 6.3; effect on egg production (fecundity) [4]: reduced egg production; MIC ([5]; no visible growth): > 125 µg/mL; MIC ([5]; value in square brackets): > 563 µM; MIC ([6]; no visible growth): > 125 µg/mL; MIC ([6]; value in square brackets): > 563 µM
CC(Br)C(=O)NC1CCSC1=O (centres unmarked) [Compound 4, 2-bromo-N-(2-oxotetrahydrothiophen-3-yl)propanamide]	only demonstrated lethality at the highest concentration	–	–	18.4	10.5	–	Selectivity index, schistosomula motility [1]: 15.4; Selectivity index, schistosomula phenotype [1]: 14.4; EC50 ([2]; read-out: ADULT WORM EC50 Female): > 10 µM; EC50 ([2]; read-out: ADULT WORM EC50 Male): > 10 µM
O=C(CBr)N[C@@H]1CCOC1=O [Compound 5, (R)-2-bromo-N-(2-oxotetrahydrofuran-3-yl)acetamide]	complete immobility	3.1	4	> 10	> 10	50.6	Selectivity index, schistosomula motility [1]: 16.3; Selectivity index, schistosomula phenotype [1]: 12.7; effect on egg production (fecundity) [4]: reduced egg production; MIC ([5]; no visible growth): 125 µg/mL; MIC ([5]; value in square brackets): 563 µM; MIC ([6]; no visible growth): 125 µg/mL; MIC ([6]; value in square brackets): 563 µM
CC(=O)OC[C@H]1O[C@@H]([S-])[C@H](OC(C)=O)[C@@H](OC(C)=O)[C@@H]1OC(C)=O.CCP(CC)CC.[Au+] [auranofin, reference compound]	–	–	–	–	–	–	Percent P.I positive parasites [7]: 100%

From PMC7595621, “Quorum sensing N-Acyl homoserine lactones are a new class of anti-schistosomal” (PLoS Neglected Tropical Diseases, 2020)
